# Data: patent US8192962B2, “Processes for detecting toxic substances” (Daikin Industries, Ltd., priority 2001, dated 2012)
# System: Energy system protein genes
# Experiment: DNA chip mRNA expression in yeast, energy system protein genes (Table 4)
# Type: cell-based, Saccharomyces cerevisiae S288C
# Summary of the method: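 Whole-genome yeast DNA chip hybridization (65° C., >12 h) of Cy-labeled cDNA from S288C cells exposed 2 h at 25° C. to a sub-lethal toxicant dose in YPD; value is intensity relative to chemical-free control.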
smiles,measurement,setting,value
"CCCCCCCCCCCCc1ccc(S(=O)(=O)[O-])cc1.[Na+] [(17), sodium dodecylbenzosulfonate]",The level of expressed mRNA in the presence of chemical substance/The level of expressed mRNA in the absence of chemical substance,yeast gene YAL060W,1.1
same,The level of expressed mRNA in the presence of chemical substance/The level of expressed mRNA in the absence of chemical substance,"yeast gene YBL058W, cells incubated two hours with the chemical substance",1.0
same,The level of expressed mRNA in the presence of chemical substance/The level of expressed mRNA in the absence of chemical substance,"yeast gene YBL099W, cells incubated two hours with the chemical substance",0.7
same,The level of expressed mRNA in the presence of chemical substance/The level of expressed mRNA in the absence of chemical substance,"yeast gene YBR001C, cells incubated two hours with the chemical substance",1.0
same,The level of expressed mRNA in the presence of chemical substance/The level of expressed mRNA in the absence of chemical substance,"yeast gene YBR185C, cells incubated two hours with the chemical substance",0.8
same,The level of expressed mRNA in the presence of chemical substance/The level of expressed mRNA in the absence of chemical substance,"yeast gene YBR221C, cells incubated two hours with the chemical substance",0.9
same,The level of expressed mRNA in the presence of chemical substance/The level of expressed mRNA in the absence of chemical substance,yeast gene YCL040W,1.4
same,The level of expressed mRNA in the presence of chemical substance/The level of expressed mRNA in the absence of chemical substance,yeast gene YCR012W,0.8
same,The level of expressed mRNA in the presence of chemical substance/The level of expressed mRNA in the absence of chemical substance,"yeast gene YCR046C, cells incubated two hours with the chemical substance",1.3
same,The level of expressed mRNA in the presence of chemical substance/The level of expressed mRNA in the absence of chemical substance,"yeast gene YCR105W, cells incubated two hours with the chemical substance",1.3
same,The level of expressed mRNA in the presence of chemical substance/The level of expressed mRNA in the absence of chemical substance,yeast gene YDL021W,1.9
same,The level of expressed mRNA in the presence of chemical substance/The level of expressed mRNA in the absence of chemical substance,"yeast gene YDL067C, cells incubated two hours with the chemical substance",1.2
same,The level of expressed mRNA in the presence of chemical substance/The level of expressed mRNA in the absence of chemical substance,"yeast gene YDL078C, cells incubated two hours with the chemical substance",1.1
same,The level of expressed mRNA in the presence of chemical substance/The level of expressed mRNA in the absence of chemical substance,"yeast gene YDL107W, cells incubated two hours with the chemical substance",1.1
same,The level of expressed mRNA in the presence of chemical substance/The level of expressed mRNA in the absence of chemical substance,yeast gene YDL174C,2.2
same,The level of expressed mRNA in the presence of chemical substance/The level of expressed mRNA in the absence of chemical substance,"yeast gene YDL181W, cells incubated two hours with the chemical substance",1.5
same,The level of expressed mRNA in the presence of chemical substance/The level of expressed mRNA in the absence of chemical substance,yeast gene YDR001C,1.1
same,The level of expressed mRNA in the presence of chemical substance/The level of expressed mRNA in the absence of chemical substance,"yeast gene YDR050C, cells incubated two hours with the chemical substance",1.1
same,The level of expressed mRNA in the presence of chemical substance/The level of expressed mRNA in the absence of chemical substance,"yeast gene YDR079W, cells incubated two hours with the chemical substance",1.1
same,The level of expressed mRNA in the presence of chemical substance/The level of expressed mRNA in the absence of chemical substance,"yeast gene YDR178W, cells incubated two hours with the chemical substance",1.2
same,The level of expressed mRNA in the presence of chemical substance/The level of expressed mRNA in the absence of chemical substance,yeast gene YDR231C,1.2
same,The level of expressed mRNA in the presence of chemical substance/The level of expressed mRNA in the absence of chemical substance,"yeast gene YDR298C, cells incubated two hours with the chemical substance",1.1
same,The level of expressed mRNA in the presence of chemical substance/The level of expressed mRNA in the absence of chemical substance,"yeast gene YDR377W, cells incubated two hours with the chemical substance",1.2
same,The level of expressed mRNA in the presence of chemical substance/The level of expressed mRNA in the absence of chemical substance,"yeast gene YDR529C, cells incubated two hours with the chemical substance",1.0
same,The level of expressed mRNA in the presence of chemical substance/The level of expressed mRNA in the absence of chemical substance,"yeast gene YEL024W, cells incubated two hours with the chemical substance",1.1
same,The level of expressed mRNA in the presence of chemical substance/The level of expressed mRNA in the absence of chemical substance,"yeast gene YEL039C, cells incubated two hours with the chemical substance",0.7
same,The level of expressed mRNA in the presence of chemical substance/The level of expressed mRNA in the absence of chemical substance,yeast gene YER178W,1.1
same,The level of expressed mRNA in the presence of chemical substance/The level of expressed mRNA in the absence of chemical substance,yeast gene YFL057C,1.6
same,The level of expressed mRNA in the presence of chemical substance/The level of expressed mRNA in the absence of chemical substance,yeast gene YFR053C,1.4
same,The level of expressed mRNA in the presence of chemical substance/The level of expressed mRNA in the absence of chemical substance,"yeast gene YGL018C, cells incubated two hours with the chemical substance",0.8
same,The level of expressed mRNA in the presence of chemical substance/The level of expressed mRNA in the absence of chemical substance,yeast gene YGL062W,1.1
same,The level of expressed mRNA in the presence of chemical substance/The level of expressed mRNA in the absence of chemical substance,"yeast gene YGL187C, cells incubated two hours with the chemical substance",0.9
same,The level of expressed mRNA in the presence of chemical substance/The level of expressed mRNA in the absence of chemical substance,"yeast gene YGL191W, cells incubated two hours with the chemical substance",1.2
same,The level of expressed mRNA in the presence of chemical substance/The level of expressed mRNA in the absence of chemical substance,"yeast gene YGL205W, cells incubated two hours with the chemical substance",3.9
same,The level of expressed mRNA in the presence of chemical substance/The level of expressed mRNA in the absence of chemical substance,"yeast gene YGL256W, cells incubated two hours with the chemical substance",0.7
same,The level of expressed mRNA in the presence of chemical substance/The level of expressed mRNA in the absence of chemical substance,yeast gene YGR043C,1.6
same,The level of expressed mRNA in the presence of chemical substance/The level of expressed mRNA in the absence of chemical substance,"yeast gene YGR062C, cells incubated two hours with the chemical substance, 25° C., YPD medium",0.9
same,The level of expressed mRNA in the presence of chemical substance/The level of expressed mRNA in the absence of chemical substance,"yeast gene YGR087C, cells incubated two hours with the chemical substance",1.0
same,The level of expressed mRNA in the presence of chemical substance/The level of expressed mRNA in the absence of chemical substance,"yeast gene YGR174C, cells incubated two hours with the chemical substance",1.3
same,The level of expressed mRNA in the presence of chemical substance/The level of expressed mRNA in the absence of chemical substance,yeast gene YGR192C,1.1
same,The level of expressed mRNA in the presence of chemical substance/The level of expressed mRNA in the absence of chemical substance,yeast gene YGR244C,1.9
same,The level of expressed mRNA in the presence of chemical substance/The level of expressed mRNA in the absence of chemical substance,yeast gene YGR254W,1.3
same,The level of expressed mRNA in the presence of chemical substance/The level of expressed mRNA in the absence of chemical substance,yeast gene YHR179W,1.9
same,The level of expressed mRNA in the presence of chemical substance/The level of expressed mRNA in the absence of chemical substance,yeast gene YIL160C,2.4
same,The level of expressed mRNA in the presence of chemical substance/The level of expressed mRNA in the absence of chemical substance,"yeast gene YIR031C, cells incubated two hours with the chemical substance",0.9
same,The level of expressed mRNA in the presence of chemical substance/The level of expressed mRNA in the absence of chemical substance,yeast gene YJL052W,1.2
same,The level of expressed mRNA in the presence of chemical substance/The level of expressed mRNA in the absence of chemical substance,"yeast gene YJL121C, cells incubated two hours with the chemical substance",1.1
same,The level of expressed mRNA in the presence of chemical substance/The level of expressed mRNA in the absence of chemical substance,"yeast gene YJL166W, cells incubated two hours with the chemical substance",1.7
same,The level of expressed mRNA in the presence of chemical substance/The level of expressed mRNA in the absence of chemical substance,"yeast gene YJL216C, cells incubated two hours with the chemical substance",1.2
same,The level of expressed mRNA in the presence of chemical substance/The level of expressed mRNA in the absence of chemical substance,yeast gene YJR009C,1.1
